The values that follow come from patent US20260183411A1, “TARGETING SORTILIN” (priority 2024, published 2026).

Where no end group is shown, it is not given here. [ ]: non-standard residue; d: D form. Cba = N[C@@H](CC1CCC1)C(=O)O; Tle = CC(C)(C)[C@H](N)C(=O)O

The nature of data set [1]: Murine serum stability assay. The format is in vitro ADME, mouse. Conditions: mouse, serum; linear peptides, Table 11; read-out: Murine serum stability assay, T1/2. Here is the method: Serum was drawn from male CD-1 mice by Pharmidex. Lyophilized peptides were solubilized in DMSO and then further diluted into male mouse (CD-1) serum at 37° C. in duplicates. The reaction was incubated at 37° C. and samples extracted at 6 time points: 0, 0.16, 0.5, 1, 3, and 6 hrs. Acetonitrile (ACN) with an internal standard (tolbutamide) was added to stop the incubation. Samples were centrifuged, and the supernatant was analyzed by HPLC-MS/MS for the parent compound.

The nature of data set [2]: Dynamic light scattering (solubility/aggregation). The format is physicochemical. The following applies: working concentrations (250 nM, PBS, pH 7.4). Here is the method:
Samples were spun down on a bench top centrifuge, 15 minutes, 15,000 rpm, room temperature, to pellet any aggregated peptide/dust before taking a measurement. Visual inspection of the tubes was used to identify if any large pellets were formed, which is indicative of large aggregates. […] The plate was then transferred and read on the DLS instrument (Wyatt Technology DynaPro Plate Reader III) at 25° C.

A further data set addresses T1, rat SORT1 (76-752)-His (rat, UniProt O54861 76-752).
T1 construct: range 76-752; Amine-coupled to CM5 chip for SPR
T1 sequence (looked up): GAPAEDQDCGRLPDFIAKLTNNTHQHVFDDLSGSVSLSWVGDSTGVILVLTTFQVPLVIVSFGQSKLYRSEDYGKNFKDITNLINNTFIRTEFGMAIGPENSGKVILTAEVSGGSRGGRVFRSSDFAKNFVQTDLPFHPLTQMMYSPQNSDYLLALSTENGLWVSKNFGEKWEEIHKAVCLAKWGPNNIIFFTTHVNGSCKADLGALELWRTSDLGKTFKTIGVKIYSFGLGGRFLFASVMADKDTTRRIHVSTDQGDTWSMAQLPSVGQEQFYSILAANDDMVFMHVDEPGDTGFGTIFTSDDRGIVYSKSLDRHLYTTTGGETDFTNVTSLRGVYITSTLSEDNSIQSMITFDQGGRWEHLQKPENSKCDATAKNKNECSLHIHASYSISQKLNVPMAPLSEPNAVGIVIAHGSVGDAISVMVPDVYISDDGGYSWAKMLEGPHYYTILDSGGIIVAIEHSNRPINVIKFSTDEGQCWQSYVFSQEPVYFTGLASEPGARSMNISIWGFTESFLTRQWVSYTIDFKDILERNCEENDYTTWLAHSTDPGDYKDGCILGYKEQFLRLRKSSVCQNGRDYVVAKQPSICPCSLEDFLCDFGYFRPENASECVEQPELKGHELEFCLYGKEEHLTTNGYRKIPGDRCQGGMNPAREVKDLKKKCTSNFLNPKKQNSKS
Nature of the data set: SPR (Biacore 8K), SORT1 on CM5 chip, unconjugated peptide with conjugation handles as analyte, 1:1 model. The procedure:
(§1) SPR analysis was performed on Series S CM5 chips (Cytiva) using a Biacore 8K instrument (Cytiva). Sensorgrams were double-referenced by subtracting the response on both a reference flow cell and a blank sample. Human SORT1 (78-755)-His (Acrobiosystems), human SORT1 (78-755)-His(GenScript), mouse SORT1 (76-753)-His (R&D Systems), rat SORT1 (76-752)-His (GenScript), and cyno SORT1 (76-753)-His (GenScript) were diluted to 20-60 μg/mL in 10 mM sodium acetate pH 4.5 buffer and immobilized onto Series S CM5 chips using amine coupling at a flow rate of 10 μL/min for 45-100 s.
(§2) Ten start-up cycles and a blank cycle preceded each analysis run. The runs were performed by sequential injections of analyte (0-20 nM, 3-fold serial dilutions) with a 90 s association and 900 s dissociation at a flow rate of 30 μL/min, followed by two regeneration cycles with 2 M MgCl2 for 90 s at a flow rate of 10 μL/min. […] Five start-up cycles and a blank cycle preceded each analysis run. The runs were performed by sequential injections of analyte (0-25 nM) with a 150 seconds (s) association and 300 s dissociation at a flow rate of 30 μL/min, followed by a regeneration with 2 M MgCl₂ for 200 s at a flow rate of 10 μL/min. The kinetic rate constants (kₐ and kd) and the equilibrium binding constant (Kd) were calculated using a 1:1 kinetic binding model on the Biacore Insight Evaluation Software (Cytiva).
(§3) SPR analysis was performed on Series S CM5 chips (Cytiva) using a Biacore 8K instrument (Cytiva). Sensorgrams were double-referenced by subtracting the response on both a reference flow cell and a blank sample. The SPR analysis was conducted using four different SORT1 species: Human SORT1, Mouse SORT1, Rat SORT1, and Cyno SORT1. The samples were prepared according to the general procedure described above herein. The kinetic rate constants (ka and […]) and the equilibrium binding constant (Kd) were calculated using a 1:1 kinetic binding model on the Biacore Insight Evaluation Software (Cytiva).

A further data set deals with T2, cyno SORT1 (76-753)-His (cyno, UniProt A0A2K5VHG2 74-751).
T2 construct: range 76-753; Amine-coupled to CM5 chip for SPR
T2 sequence: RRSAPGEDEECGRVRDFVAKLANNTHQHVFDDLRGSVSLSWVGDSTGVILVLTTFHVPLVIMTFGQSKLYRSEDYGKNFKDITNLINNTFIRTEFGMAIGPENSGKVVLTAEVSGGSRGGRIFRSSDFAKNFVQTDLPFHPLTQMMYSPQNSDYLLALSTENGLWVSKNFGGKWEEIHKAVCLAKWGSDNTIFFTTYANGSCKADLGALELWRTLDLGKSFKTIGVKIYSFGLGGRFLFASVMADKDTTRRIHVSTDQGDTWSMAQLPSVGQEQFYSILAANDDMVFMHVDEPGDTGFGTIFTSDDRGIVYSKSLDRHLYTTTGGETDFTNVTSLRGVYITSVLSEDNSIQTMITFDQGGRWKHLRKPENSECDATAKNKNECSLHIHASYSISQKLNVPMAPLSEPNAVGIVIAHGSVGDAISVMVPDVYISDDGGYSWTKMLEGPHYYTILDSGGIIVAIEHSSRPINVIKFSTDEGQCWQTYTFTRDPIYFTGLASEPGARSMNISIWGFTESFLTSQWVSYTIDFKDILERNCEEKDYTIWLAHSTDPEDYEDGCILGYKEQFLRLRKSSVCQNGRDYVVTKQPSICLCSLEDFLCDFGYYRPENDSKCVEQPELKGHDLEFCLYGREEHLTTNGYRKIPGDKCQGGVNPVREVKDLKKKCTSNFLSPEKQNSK
Described as above. Here is the method: as §1, §2, §3

Take `CC(C)C[C@H](NC(=O)[C@H](CCCNC(=N)N)NC(=O)[C@H](CC(C)C)NC(=O)[C@H](C)NC(=O)[C@H](CC(C)C)NC(=O)[C@H](CCCNC(=N)N)NC(=O)[C@H](CCC(N)=O)NC(=O)[C@H](CC(C)C)NC(=O)[C@H](C)NC(=O)[C@@H]1CCCN1C(=O)[C@H](Cc1c[nH]c2ccccc12)NC(=O)[C@@H]1CCCN1C(=O)[C@H](C)NC(=O)[C@H](CCCNC(=N)N)NC(=O)[C@@H]1CCCN1C(=O)[C@H](CC(=O)O)NC(=O)[C@@H](N)CC(=O)O)C(=O)O` [PRGN_RL]: the half-life in data set [1] is 27.7 min. In data set [2], the “solubility (DLS)” value was “good solubility”.

As to `CC(C)C[C@H](NC(=O)[C@H](CC(C)C)NC(=O)[C@H](CCC(N)=O)NC(=O)[C@H](CCCNC(=N)N)NC(=O)[C@H](CC(C)C)NC(=O)[C@H](C)NC(=O)[C@@H]1CCCN1C(=O)[C@H](CC(=O)O)NC(=O)[C@H](CCCNC(=N)N)NC(=O)[C@H](CC(C)C)NC(=O)[C@@H]1CCCN1C(=O)[C@H](C)NC(=O)[C@H](CC(=O)O)NC(=O)[C@H](Cc1c[nH]c2ccccc12)NC(=O)[C@H](CCCNC(=N)N)NC(=O)[C@@H]1CCCN1C(=O)[C@H](C)N)C(=O)O` [PRGN_WT], the half-life in data set [1] was 3.16 min. Moreover, in data set [2], the “solubility (DLS)” value is “good solubility”.

In general, Kd refers to the concentration at which binding is half-saturated. For the molecule APRWDAPLRDPALRQ[Tle][Cba] (also: conjugation handles, not given here, also called Arb-SAR-Q15) [SORT1 peptide 2 (w/conjugation handles), unconjugated], the Kd came out at 0.757 nM in the data set with rat SORT1 (76-752)-His and 0.152 nM with cyno SORT1 (76-753)-His.
